# pIC50: −log10 of the molar value.
# Experiments:
# [1] = target: Cyclin-dependent kinase 4/G1/S-specific cyclin-D1 (Homo sapiens, UniProt P11802); assay: CDK Kinase Inhibition Assay; details: pH 7; 22 °C
# [2] = target: cAMP-dependent protein kinase catalytic subunit alpha (Bos taurus, UniProt P00517); assay: CDK Kinase Inhibition Assay; details: 25 °C
# Sequence of Cyclin-dependent kinase 4/G1/S-specific cyclin-D1 (P11802 whole entry): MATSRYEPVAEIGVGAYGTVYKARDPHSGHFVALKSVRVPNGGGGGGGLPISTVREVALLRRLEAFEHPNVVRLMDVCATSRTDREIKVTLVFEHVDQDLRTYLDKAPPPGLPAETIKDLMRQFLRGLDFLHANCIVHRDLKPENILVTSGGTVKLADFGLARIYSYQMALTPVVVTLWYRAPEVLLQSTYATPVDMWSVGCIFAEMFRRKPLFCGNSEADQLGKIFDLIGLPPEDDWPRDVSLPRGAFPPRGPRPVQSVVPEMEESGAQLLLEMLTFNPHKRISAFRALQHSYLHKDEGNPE
# Sequence of Cyclin-dependent kinase 4/G1/S-specific cyclin-D1 (P24385 whole entry, further chain): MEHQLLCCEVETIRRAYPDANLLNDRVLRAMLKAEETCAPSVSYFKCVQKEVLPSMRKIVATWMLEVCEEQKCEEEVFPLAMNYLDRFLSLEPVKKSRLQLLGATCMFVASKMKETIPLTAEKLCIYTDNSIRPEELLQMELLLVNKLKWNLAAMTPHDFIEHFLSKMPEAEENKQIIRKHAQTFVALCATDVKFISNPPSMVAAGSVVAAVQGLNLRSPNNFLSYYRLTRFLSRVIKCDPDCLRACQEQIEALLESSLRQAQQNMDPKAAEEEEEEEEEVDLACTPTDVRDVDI
SMILES,pIC50 [1],pIC50 [2]
COC(=O)[C@@]1(O)C[C@H]2O[C@]1(C)n1c3ccccc3c3c4c(c5c6ccccc6n2c5c31)C(=O)NC4,7.52,
CN(C)CCCn1cc(C2=C(c3c[nH]c4ccccc34)C(=O)NC2=O)c2ccccc21 [2-[1-(3-dimethylaminopropyl)-indol-3-yl]-3-(indol-3-yl)maleimide],,< 4.70
"Cn1cc(C2=C(c3cn(C)c4ccccc34)C(=O)NC2=O)c2ccccc21 [3,4-bis(1-methyl-1H-indol-3-yl)-2,5-dihydro-1H-pyrrole-2,5-dione]",,< 4.70
"O=C1NC(=O)c2c1c1c3ccccc3[nH]c1c1c2c2ccccc2n1CCCO [3-(3-hydroxypropyl)-3,13,23-triazahexacyclo[14.7.0.0^{2,10}.0^{4,9}.0^{11,15}.0^{17,22}]tricosa-1(16),2(10),4(9),5,7,11(15),17(22),18,20-nonaene-12,14-dione]",,< 4.70
"Cn1cc(C2=C(c3cn(CC(O)CO)c4ccccc34)C(=O)NC2=O)c2ccccc21 (stereo unspecified) [3-[1-(2,3-dihydroxypropyl)-1H-indol-3-yl]-4-(1-methyl-1H-indol-3-yl)-2,5-dihydro-1H-pyrrole-2,5-dione]",,< 4.70
"Cn1c2ccccc2c2c3c(c4c5ccccc5[nH]c4c21)C(=O)NC3=O [3-methyl-3,13,23-triazahexacyclo[14.7.0.0^{2,10}.0^{4,9}.0^{11,15}.0^{17,22}]tricosa-1(16),2(10),4(9),5,7,11(15),17(22),18,20-nonaene-12,14-dione]",,< 4.70
"O=C1NC(=O)c2c1c1c3ccccc3[nH]c1c1[nH]c3ccccc3c21 [6,7,12,13-Tetrahydro-5,7-dioxo-5H-indolo[2,3-a]pyrrolo[3,4-c]carbazole]",,< 4.70
"COc1ccc2c(c1)[nH]c1c3[nH]c4cc(OC)ccc4c3c3c(c21)C(=O)NC3=O [6,20-dimethoxy-3,13,23-triazahexacyclo[14.7.0.0^{2,10}.0^{4,9}.0^{11,15}.0^{17,22}]tricosa-1(16),2(10),4(9),5,7,11(15),17(22),18,20-nonaene-12,14-dione]",,< 4.70
"O=C1NC(=O)c2c1c1c3ccccc3n3c1c1c2c2ccccc2n1[C@H]1CC[C@@H]3O1 [28-oxa-4,14,19-triazaoctacyclo[12.11.2.1^{15,18}.0^{2,6}.0^{7,27}.0^{8,13}.0^{19,26}.0^{20,25}]octacosa-1(26),2(6),7(27),8(13),9,11,20(25),21,23-nonaene-3,5-dione]",6.27,
Cn1c2ccccc2c2c3c(c4c5ccc(Br)cc5[nH]c4c21)C(=O)NC3=O [indolocarbazole deriv. 4(f)],,< 4.70
Cn1c2ccccc2c2c3c(c4c5ccc(F)cc5[nH]c4c21)C(=O)NC3=O [indolocarbazole deriv. 4(h)],,< 4.70

# Reference: BindingDB's records for doi:10.1016/s0960-894x(03)00792-3 (Eli Lilly, 2003)
